Reference: paper PMC12006963, “Application of Deuterium in an M1 Positive Allosteric Modulator Back-Up Program: The Discovery of VU6045422” (ACS Chemical Neuroscience, 2025)
Entries after “also recorded” stand apart in the source; their conditions may differ.

Tests used:
CYP 3A4 = CYP 3A4 (Homo sapiens, UniProt P08684); set-up: method as in PMID 39660766; conditions: in words; cited from earlier work
Adrenergic α2A = Adrenergic α2A (Homo sapiens, UniProt P08913); experiment: Eurofins radioligand binding
seizure activity = experiment: Behavioral manifestations of seizure activity (modified Racine score); format: in vivo, C57Bl/6 mice; conditions: 100 mg/kg IP in mice; modified Racine scale 0-5
Description: page 9: Brain plasma concentration ratio (Kp) was calculated by dividing brain concentration by plasma concentration for each animal. Unbound brain to unbound plasma concentration ratio (Kp,uu) is calculated using the following formula: Kp,uu = (Brain ng/g x brain fu)/(plasma ng/ml x plasma fu). Pharmacokinetic profiles in rats following oral single escalating doses Single escalating oral dosing in Sprague-Dawley rats was performed at Frontage Laboratories according to their non-GLP Standard Operating Procedure and IACUC protocols. In short, compounds were formulated in 10% Tween 80 in water and dosed at 10 mg/kg. At different times, arterial blood was collected from a femoral artery catheter, and compound concentration was determined in plasma by LC-MS/MS following their non-GLP protocol. PK parameters were determined using Phoenix WinNonlin software (version 6.3). In-vitro determination of blood-brain barrier penetration potential Blood-brain barrier penetration was determined using MDR1-MDCK cell monolayers by Absorption Systems, following their protocol. In short, compounds were incubated at […] final concentration on one side of the cell monolayer for 2 hours. […] Animals were monitored continuously and scored for behavioral manifestations of seizure activity at 5, 15, 30 min, and 1 h. Behavioral manifestations of seizures were scored using a modified Racine scoring system. […]

Neuropeptide Y Y2 = Neuropeptide Y Y2 (Homo sapiens, UniProt P49146); experiment: Eurofins radioligand binding
Sequence of Neuropeptide Y Y2 (P49146 whole entry): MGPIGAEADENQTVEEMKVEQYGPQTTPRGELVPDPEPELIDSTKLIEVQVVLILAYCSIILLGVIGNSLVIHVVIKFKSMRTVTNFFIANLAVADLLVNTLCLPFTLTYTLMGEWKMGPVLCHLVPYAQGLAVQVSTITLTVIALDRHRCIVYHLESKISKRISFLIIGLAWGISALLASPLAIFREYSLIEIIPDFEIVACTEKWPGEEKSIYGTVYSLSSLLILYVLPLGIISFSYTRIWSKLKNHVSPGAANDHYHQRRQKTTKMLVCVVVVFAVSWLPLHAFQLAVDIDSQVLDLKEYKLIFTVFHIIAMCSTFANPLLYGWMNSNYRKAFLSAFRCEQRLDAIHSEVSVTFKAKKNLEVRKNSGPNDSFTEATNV

Dopamine D1 = Dopamine D1 (Homo sapiens, UniProt P21728); experiment: Eurofins radioligand binding
Sequence of Dopamine D1 (P21728 whole entry): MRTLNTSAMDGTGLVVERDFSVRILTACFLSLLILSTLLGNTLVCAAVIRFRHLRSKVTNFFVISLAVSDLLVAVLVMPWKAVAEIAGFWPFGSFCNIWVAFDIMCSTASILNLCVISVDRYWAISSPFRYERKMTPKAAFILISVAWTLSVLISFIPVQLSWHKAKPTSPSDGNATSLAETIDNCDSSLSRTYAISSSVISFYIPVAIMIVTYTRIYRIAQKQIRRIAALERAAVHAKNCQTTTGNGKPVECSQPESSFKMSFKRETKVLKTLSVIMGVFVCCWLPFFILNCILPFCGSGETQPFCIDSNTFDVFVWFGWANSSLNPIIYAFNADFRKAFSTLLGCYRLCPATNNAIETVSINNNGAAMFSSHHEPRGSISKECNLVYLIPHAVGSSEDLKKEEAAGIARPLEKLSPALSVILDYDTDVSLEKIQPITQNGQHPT

[1] = system: fEPSPs in layer V medial prefrontal cortex (mPFC); experiment: Slice electrophysiology, long-term depression of fEPSPs; set-up: species or system mouse; conditions: 10 μM; layer V recording, stimulation in layer II/III; n = 9
Description: While ago-PAMs induce substantial long-term depression that correlates with a lack of robust procognitive efficacy,[14],[16]−[21] […] Thus, PAM 5 maintains activity dependence of PFC function (Figure 3), and it is expected to display robust precognitive efficacy.
(A) Normalized time course of the fEPSP slope during baseline, application of 10 μM VU6045422 and washout. (B) Bar graph summarizing the averaged fEPSP slope during the last 5 min of washout (gray bar in panel (A)) compared to the baseline period (ns, p > 0.05, two-tailed paired t test, n = 9).

hERG = hERG (Homo sapiens, UniProt Q12809); experiment: hERG manual patch clamp; format: cell-based
Sequence of hERG (Q12809 whole entry): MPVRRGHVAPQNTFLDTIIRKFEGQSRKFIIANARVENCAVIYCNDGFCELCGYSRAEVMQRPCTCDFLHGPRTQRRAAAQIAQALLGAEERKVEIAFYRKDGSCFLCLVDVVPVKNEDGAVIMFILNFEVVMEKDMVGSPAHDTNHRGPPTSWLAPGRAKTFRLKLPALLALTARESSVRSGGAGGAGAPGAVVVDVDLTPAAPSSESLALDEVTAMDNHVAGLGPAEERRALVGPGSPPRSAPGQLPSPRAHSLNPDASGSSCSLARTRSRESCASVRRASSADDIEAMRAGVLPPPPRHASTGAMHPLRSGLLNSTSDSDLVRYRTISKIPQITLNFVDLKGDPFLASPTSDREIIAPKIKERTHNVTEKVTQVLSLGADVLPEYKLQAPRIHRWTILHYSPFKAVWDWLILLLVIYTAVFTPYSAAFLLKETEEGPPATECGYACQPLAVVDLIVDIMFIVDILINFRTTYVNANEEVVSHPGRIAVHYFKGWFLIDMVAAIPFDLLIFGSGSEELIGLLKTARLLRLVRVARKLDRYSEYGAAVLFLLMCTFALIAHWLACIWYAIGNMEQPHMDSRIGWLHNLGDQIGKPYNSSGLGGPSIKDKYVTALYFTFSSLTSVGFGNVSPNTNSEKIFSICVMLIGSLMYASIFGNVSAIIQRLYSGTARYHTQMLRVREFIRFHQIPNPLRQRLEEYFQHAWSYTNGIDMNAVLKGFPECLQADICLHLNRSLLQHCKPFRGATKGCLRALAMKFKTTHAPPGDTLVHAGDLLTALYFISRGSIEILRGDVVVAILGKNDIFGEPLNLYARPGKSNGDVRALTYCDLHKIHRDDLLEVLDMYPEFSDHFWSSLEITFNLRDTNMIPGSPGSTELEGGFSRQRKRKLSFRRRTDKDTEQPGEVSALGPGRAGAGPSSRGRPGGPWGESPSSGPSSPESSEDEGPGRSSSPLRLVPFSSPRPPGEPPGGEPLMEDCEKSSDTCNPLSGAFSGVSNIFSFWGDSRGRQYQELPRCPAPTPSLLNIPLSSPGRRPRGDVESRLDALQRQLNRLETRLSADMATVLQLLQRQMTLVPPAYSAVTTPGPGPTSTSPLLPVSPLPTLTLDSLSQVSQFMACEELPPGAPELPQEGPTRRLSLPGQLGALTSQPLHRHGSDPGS

Adrenergic β1 = Adrenergic β1 (Homo sapiens, UniProt P08588); experiment: Eurofins radioligand binding
Sequence of Adrenergic β1 (P08588 whole entry): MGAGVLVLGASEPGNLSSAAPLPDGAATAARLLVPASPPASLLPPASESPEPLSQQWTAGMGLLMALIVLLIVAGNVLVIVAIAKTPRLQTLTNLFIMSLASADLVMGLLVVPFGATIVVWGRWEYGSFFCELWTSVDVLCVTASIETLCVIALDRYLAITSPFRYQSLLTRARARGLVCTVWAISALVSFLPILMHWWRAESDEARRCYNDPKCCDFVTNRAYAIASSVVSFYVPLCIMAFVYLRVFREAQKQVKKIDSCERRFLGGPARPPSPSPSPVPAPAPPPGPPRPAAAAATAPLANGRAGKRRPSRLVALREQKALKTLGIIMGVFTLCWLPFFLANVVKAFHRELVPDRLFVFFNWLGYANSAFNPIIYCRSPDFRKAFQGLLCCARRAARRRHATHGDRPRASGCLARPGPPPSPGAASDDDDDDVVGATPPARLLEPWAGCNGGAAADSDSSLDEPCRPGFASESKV

[2] = system: Calcium Channel L-Type, Dihydropyridine; experiment: Eurofins radioligand binding; set-up: species or system Rat
Glutamate, NMDA, Glycine = experiment: Eurofins radioligand binding; set-up: species or system Rat
CYP 2D6 = CYP 2D6 (Homo sapiens, UniProt P10635); experiment: CYP isoform contribution to metabolism: 2D6; format: in vitro ADME
Sequence of CYP 2D6 (P10635 whole entry, canonical isoform): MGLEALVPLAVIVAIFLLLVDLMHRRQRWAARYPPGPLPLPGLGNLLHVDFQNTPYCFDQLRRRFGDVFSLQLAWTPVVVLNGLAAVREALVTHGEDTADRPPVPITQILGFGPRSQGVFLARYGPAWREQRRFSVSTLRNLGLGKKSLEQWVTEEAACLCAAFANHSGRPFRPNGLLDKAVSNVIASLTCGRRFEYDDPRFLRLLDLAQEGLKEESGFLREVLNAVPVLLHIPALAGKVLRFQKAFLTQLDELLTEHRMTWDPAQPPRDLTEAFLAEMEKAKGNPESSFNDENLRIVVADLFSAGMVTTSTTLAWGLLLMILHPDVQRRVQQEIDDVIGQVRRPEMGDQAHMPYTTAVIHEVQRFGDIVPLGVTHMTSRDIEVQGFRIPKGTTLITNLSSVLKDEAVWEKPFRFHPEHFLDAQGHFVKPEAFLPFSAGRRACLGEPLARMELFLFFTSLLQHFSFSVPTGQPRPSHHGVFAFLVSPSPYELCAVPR

[3] = system: Calcium Channel L-Type, Benzothiazepine; experiment: Eurofins radioligand binding; set-up: species or system Rat
[4] = Rat 14-day exploratory toxicology and toxicokinetic study; format: in vivo; conditions: rat 14-day study, plasma
Excerpt: (§1) To this end, we prepared a 200 g lot of PAM 5 and performed, in parallel, a dog maximum tolerated dose (MTD) with a pharmacokinetics study and a 14-day rat exploratory toxicology and toxicokinetic study, quantifying plasma Cmax and AUC for both parent 5 and metabolite 6. […] Moreover, while exposure increased with dose, it was nonlinear. […] The series was terminated based on (1) poor and less than dose-proportional increases in systemic exposure, (2) lack of a kinetic isotope effect to diminish production of 6 in dogs and rats, and (3) strong likelihood of even higher concentrations of 6 to be present in man.

Opiate μ (OP3, MOP) = Opiate μ (OP3, MOP) (Homo sapiens, UniProt P35372); experiment: Eurofins radioligand binding
Sequence of Opiate μ (OP3, MOP) (P35372 whole entry): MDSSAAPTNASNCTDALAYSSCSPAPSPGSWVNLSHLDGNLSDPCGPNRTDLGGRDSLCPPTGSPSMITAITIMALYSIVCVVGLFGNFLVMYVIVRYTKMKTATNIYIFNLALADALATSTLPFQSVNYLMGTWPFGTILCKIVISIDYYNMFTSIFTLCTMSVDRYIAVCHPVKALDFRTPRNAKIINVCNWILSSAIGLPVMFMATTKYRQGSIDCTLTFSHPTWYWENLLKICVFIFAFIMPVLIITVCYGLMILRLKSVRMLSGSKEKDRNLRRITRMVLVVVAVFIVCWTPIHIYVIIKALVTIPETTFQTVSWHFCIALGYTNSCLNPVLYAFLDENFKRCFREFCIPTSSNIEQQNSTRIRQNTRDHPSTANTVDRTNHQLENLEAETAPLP

Adrenergic α1D = Adrenergic α1D (Homo sapiens, UniProt P25100); experiment: Eurofins radioligand binding
Sequence of Adrenergic α1D (P25100 whole entry): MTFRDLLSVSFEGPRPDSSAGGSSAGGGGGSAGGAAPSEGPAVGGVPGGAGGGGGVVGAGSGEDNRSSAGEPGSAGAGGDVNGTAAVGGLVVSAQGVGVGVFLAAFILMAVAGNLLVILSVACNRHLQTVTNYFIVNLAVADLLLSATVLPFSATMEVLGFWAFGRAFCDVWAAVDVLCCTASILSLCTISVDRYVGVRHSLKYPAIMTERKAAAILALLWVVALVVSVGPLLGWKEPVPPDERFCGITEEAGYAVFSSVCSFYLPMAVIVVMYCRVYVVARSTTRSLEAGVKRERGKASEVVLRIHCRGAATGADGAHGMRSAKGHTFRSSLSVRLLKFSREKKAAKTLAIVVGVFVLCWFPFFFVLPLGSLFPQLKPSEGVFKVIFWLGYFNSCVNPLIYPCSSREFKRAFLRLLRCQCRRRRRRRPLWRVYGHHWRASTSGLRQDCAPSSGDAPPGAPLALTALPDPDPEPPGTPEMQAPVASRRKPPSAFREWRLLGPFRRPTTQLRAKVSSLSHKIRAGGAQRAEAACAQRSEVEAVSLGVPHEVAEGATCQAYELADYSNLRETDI

[5] = biological target: Transporter, Norepinephrine (NET) (Homo sapiens, UniProt P23975); experiment: Eurofins radioligand binding
Adrenergic α1A = Adrenergic α1A (Homo sapiens, UniProt P35348); experiment: Eurofins radioligand binding
Sequence of Adrenergic α1A (P35348 whole entry): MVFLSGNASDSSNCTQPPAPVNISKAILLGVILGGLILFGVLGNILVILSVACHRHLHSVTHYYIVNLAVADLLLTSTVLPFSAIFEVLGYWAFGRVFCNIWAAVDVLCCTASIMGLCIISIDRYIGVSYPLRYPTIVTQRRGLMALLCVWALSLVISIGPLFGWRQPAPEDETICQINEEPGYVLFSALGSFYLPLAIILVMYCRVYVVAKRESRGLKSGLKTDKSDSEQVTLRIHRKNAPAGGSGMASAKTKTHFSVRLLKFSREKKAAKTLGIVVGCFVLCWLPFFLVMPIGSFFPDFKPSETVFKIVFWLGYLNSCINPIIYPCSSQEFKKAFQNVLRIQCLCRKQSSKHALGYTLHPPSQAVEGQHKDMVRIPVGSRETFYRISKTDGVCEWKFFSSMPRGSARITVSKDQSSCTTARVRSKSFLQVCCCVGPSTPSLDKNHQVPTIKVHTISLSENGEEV

Muscarinic M3 = Muscarinic M3 (Homo sapiens, UniProt P20309); experiment: Eurofins radioligand binding
Rolipram = experiment: Eurofins radioligand binding; set-up: species or system Rat
Prostanoid EP4 = Prostanoid EP4 (Homo sapiens, UniProt P35408); experiment: Eurofins radioligand binding
Sequence of Prostanoid EP4 (P35408 whole entry): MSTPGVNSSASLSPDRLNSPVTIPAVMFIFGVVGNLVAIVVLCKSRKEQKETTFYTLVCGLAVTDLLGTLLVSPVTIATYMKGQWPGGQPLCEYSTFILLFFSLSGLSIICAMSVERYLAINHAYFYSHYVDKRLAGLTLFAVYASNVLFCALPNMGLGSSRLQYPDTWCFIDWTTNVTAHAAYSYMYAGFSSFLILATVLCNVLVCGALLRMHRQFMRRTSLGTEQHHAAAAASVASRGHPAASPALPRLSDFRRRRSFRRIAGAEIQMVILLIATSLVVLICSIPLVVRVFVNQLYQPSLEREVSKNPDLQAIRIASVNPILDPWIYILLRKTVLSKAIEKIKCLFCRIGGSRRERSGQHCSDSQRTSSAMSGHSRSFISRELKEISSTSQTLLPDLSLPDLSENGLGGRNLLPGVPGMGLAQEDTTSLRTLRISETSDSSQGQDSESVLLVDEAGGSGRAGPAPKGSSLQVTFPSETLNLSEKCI

[6] = Dog MTD with pharmacokinetics study; format: in vivo; conditions: for AUC / Cmax: dog MTD, plasma
Excerpt: as §1

[7] = system: Purinergic P2Y, Non-Selective; experiment: Eurofins radioligand binding; set-up: species or system Rat

In the case of `Cn1cc2c(-c3cc(F)c(CN4Cc5ncccc5C4=O)c(F)c3)cccc2n1` [compound 1], the “CYP isoform responsible for metabolism” value (CYP 3A4) is given as “solely metabolized by CYP 3A4”.
Molecule `[2H]C1([2H])c2ncccc2C(=O)N1Cc1c(F)cc(-c2cccc3nn(C([2H])([2H])[2H])cc23)cc1F` [compound 5] has an inhibition at 10 µM (Adrenergic α2A) of 58%, a Racine score (seizure activity) of 1 and an inhibition at 10 µM (Neuropeptide Y Y2) of -3%. The inhibition at 10 µM (Dopamine D1) was -3%, the “change in fEPSPs / long-term depression” value [1] was “no significant changes; also recorded: did not induce a significant long-term depression” and the IC50 (hERG) was 21 µM. For the same molecule, the inhibition at 10 µM (Adrenergic β1) was 2%, the “% Inhibition at 10 µM” value [2] was 6% and the “% Inhibition at 10 µM” value (Glutamate, NMDA, Glycine) was -8%. The “contribution of CYP 2D6 to metabolism” value (CYP 2D6) was 1.6%, the “% Inhibition at 10 µM” value [3] was 15% and the AUC at 14 days ([4]; day 14, 300 mg/kg PO of 5) was 321 µg·h/mL. It also gave a Cmax at 14 days ([4]; day 14, 300 mg/kg PO of 5) of 22200 ng/mL, an AUC at 14 days ([4]; day 14, 750 mg/kg PO of 5) of 536 µg·h/mL and a Cmax at 14 days ([4]; day 14, 750 mg/kg PO of 5) of 31300 ng/mL. The AUC at 14 day ([4]; day 14, 1500 mg/kg PO of 5) was 518 µg·h/mL, the Cmax at 14 days ([4]; day 14, 1500 mg/kg PO of 5) was 30700 ng/mL and the inhibition at 10 µM (Opiate μ (OP3, MOP)) was 5%. It also gave an inhibition at 10 µM (Adrenergic α1D) of -15%, an inhibition at 10 µM [5] of 12% and an inhibition at 10 µM (Adrenergic α1A) of 8%. For the same molecule, the inhibition at 10 µM (Muscarinic M3) was -10%, the “% Inhibition at 10 µM” value (Rolipram) was 10% and the inhibition at 10 µM (Prostanoid EP4) was -3%. The AUC ([6]; 30 mg/kg PO of 5) was 34.9 µg·h/mL, the Cmax ([6]; 30 mg/kg PO of 5) was 2400 ng/mL and the AUC ([6]; 300 mg/kg PO of 5) was 68 µg·h/mL. For the same molecule, the Cmax ([6]; 300 mg/kg PO of 5) was 3620 ng/mL, the AUC ([6]; 1000 mg/kg PO of 5) was 103 µg·h/mL and the Cmax ([6]; 1000 mg/kg PO of 5) was 5560 ng/mL. For the same molecule, the “tolerability in dog MTD” value ([6]; dog, in vivo, po) was “well-tolerated” and the “% Inhibition at 10 µM” value [7] was 9%.
